In ChEMBL document CHEMBL1122538, “Functional group contributions to drug-receptor interactions” (J Med Chem, 1984):

Assay: Binding energy by using the equation deltaG obsd = -RT ln KD
Format: ADME

Compound | Binding energy
CNCCCC1c2ccccc2C=Cc2ccccc21 [PROTRIPTYLINE] | 10.8 kcal/mol
C[C@]12CC[C@@H]3c4ccc(O)cc4CC[C@H]3[C@@H]1CC[C@@H]2O [ESTRADIOL] | 13.2 kcal/mol
COc1ccc2cc([C@H](C)C(=O)O)ccc2c1 [NAPROXEN] | 8.5 kcal/mol
CN(Cc1cnc2nc(N)nc(N)c2n1)c1ccc(C(=O)N[C@@H](CCC(=O)O)C(=O)O)cc1 [METHOTREXATE] | 12.9 kcal/mol
CN1Cc2c(N)cccc2C(c2ccccc2)C1 (configuration not stated) [NOMIFENSINE] | 8.8 kcal/mol
O=C(O)Cc1ccccc1Oc1ccc(Cl)cc1Cl [FENCLOFENAC] | 9.2 kcal/mol
NCCCC(=O)O [GAMMA-AMINOBUTYRIC ACID] | 10.9 kcal/mol
CC(C)Cc1ccc(C(C)C(=O)O)cc1 (configuration not stated) [IBUPROFEN] | 8.3 kcal/mol
Cc1ccc(F)cc1NC1=NCCN1 [FLUTONIDINE] | 11.4 kcal/mol
CN1[C@@H]2CC[C@H]1C[C@@H](OC(=O)C(CO)c1ccccc1)C2 (some centres not stated) [ATROPINE] | 12.8 kcal/mol
Oc1ccccc1 [PHENOL] | 2.7 kcal/mol
N/C=C(\OP(=O)(O)O)C(=O)O | 10.5 kcal/mol
O=P(O)(O)O[C@H]1OC[C@@H](O)[C@H](O)[C@H]1O | 6.2 kcal/mol
NCCc1c[nH]c2ccc(O)cc12 [SEROTONIN] | 8.9 kcal/mol
CO/C=C/C(N)C(=O)O (configuration not stated) | 5.9 kcal/mol
CC(C)NCC(O)COc1cccc2ccccc12 (configuration not stated) [PROPRANOLOL] | 12.8 kcal/mol
Cc1ncc(CO)c(CN[C@@H](C)C(=O)O)c1O | 9.2 kcal/mol
COC1C2CCN(CC3CC3)C1Cc1ccc(O)cc12 (configuration not stated) | 12.2 kcal/mol
O=C(CCCN1CCC(n2c(O)nc3ccccc32)CC1)c1ccc(F)cc1 [BENPERIDOL] | 12.2 kcal/mol
CN(C)CCOC(c1ccc(Cl)cc1)c1ccccn1 (configuration not stated) [CARBINOXAMINE] | 12.3 kcal/mol
CC[C@@H]1C(=O)OC[C@@H]1Cc1cncn1C [PILOCARPINE] | 10.1 kcal/mol
c1ccc2c(c1)OCC(CN1CCCCC1)O2 (configuration not stated) [PIPEROXAN] | 10.7 kcal/mol
O=C(O)COP(=O)(O)O [PHOSPHOGLYCOLIC ACID] | 8.7 kcal/mol
C[C@]12C[C@H](O)[C@H]3[C@@H](CCC4=CC(=O)CC[C@@]43C)[C@@H]1CC[C@@H]2C(=O)CO [CORTICOSTERONE] | 11.6 kcal/mol

Compound | Binding energy
CCCCCc1ccc2nc(N)nc(N)c2c1C | 18.7 kcal/mol
C=C(C)[C@@H]1[C@H]2OC(=O)[C@@H]1[C@]1(O)C[C@H]3O[C@]34C(=O)O[C@H]2[C@]14C [PICROTOXININ] | 8.7 kcal/mol
CCC(=O)C(CC(C)N(C)C)(c1ccccc1)c1ccccc1 (configuration not stated) [METHADONE] | 11.8 kcal/mol
CC(=O)CC(=O)C(=O)O | 9.1 kcal/mol
CC(C)(C)NC[C@H](O)COc1nsnc1N1CCOCC1 [TIMOLOL] | 13 kcal/mol
NCc1cc(=O)[nH]o1 [MUSCIMOL] | 11.9 kcal/mol
Cl[C@H]1[C@H](Cl)[C@@H](Cl)[C@@H](Cl)[C@H](Cl)[C@H]1Cl [LINDANE] | 6.1 kcal/mol
O=P(O)(O)CCCCO | 3.3 kcal/mol
O=C(c1ccc(F)cc1)C1CCN(CCn2c(=O)[nH]c3ccccc3c2=O)CC1 [KETANSERIN] | 12.8 kcal/mol
CNC(=O)Oc1cccc2c1OC(C)(C)C2 [CARBOFURAN] | 4.6 kcal/mol
CCc1nc(N)nc(N)c1C12CC3CC(CC(C3)C1)C2 | 13.4 kcal/mol
Cc1c(Cc2ccc(Cl)cc2)cnc2nc(N)nc(N)c12 | 13.2 kcal/mol
Nc1nc(N)c2nc(Cc3ccccc3)cnc2n1 | 12.3 kcal/mol
CN1[C@@H]2C[C@@H](OC(=O)[C@H](CO)c3ccccc3)C[C@H]1[C@@H]1O[C@@H]12 [SCOPOLAMINE] | 12.9 kcal/mol
CN1C[C@H](CNC(=O)OCc2ccccc2)C[C@@H]2c3cccc4c3c(cn4C)C[C@H]21 [METERGOLINE] | 13 kcal/mol
CCC1(c2ccccc2)C(=O)NC(=O)N(C)C1=O (configuration not stated) [MEPHOBARBITAL] | 7.3 kcal/mol
NC1(C(=O)O)CCCC1 [CYCLOLEUCINE] | 4.9 kcal/mol
COc1ccc(CCN2CCC(Nc3nc4ccccc4n3Cc3ccc(F)cc3)CC2)cc1 [ASTEMIZOLE] | 11.3 kcal/mol
CC(=O)O [ACETIC ACID] | 3.1 kcal/mol
CCC1(CC)C(=O)NC(=O)N(C)C1=O [METHARBITAL] | 6.8 kcal/mol
CC(=O)OC(Cc1ccc(C=O)cc1)c1ccc(C=O)cc1 (configuration not stated) | 6.4 kcal/mol
Nc1cc(Cl)c(N=C2NCCN2)c(Cl)c1 [APRACLONIDINE] | 12.7 kcal/mol
C[C@]12CCC(=O)C[C@@H]1CC[C@@H]1[C@@H]2CC[C@]2(C)[C@@H](O)CC[C@@H]12 (stereo in doubt) [STANOLONE] | 6.8 kcal/mol
N=C(N)NC(=O)Cc1c(Cl)cccc1Cl [GUANFACINE] | 11.9 kcal/mol

Compound | Binding energy
COC(=O)C1=CCCN(C)C1 [ARECOLINE] | 7.2 kcal/mol
O=C1NC(=O)C(c2ccccc2)(c2ccccc2)N1 [PHENYTOIN] | 11.2 kcal/mol
ClC1=C(Cl)[C@]2(Cl)[C@@H]3[C@@H]4C[C@@H]([C@H]5O[C@@H]45)[C@@H]3[C@@]1(Cl)C2(Cl)Cl [DIELDRIN] | 6.1 kcal/mol
CN1CCC(=C2c3ccccc3CCc3sccc32)CC1 [PIZOTYLINE] | 13 kcal/mol
CN1[C@@H]2CC[C@H]1C[C@@H](OC(c1ccccc1)c1ccccc1)C2 [BENZTROPINE] | 12.6 kcal/mol
CN1CCN2c3ccccc3Cc3ccccc3C2C1 (configuration not stated) [MIANSERIN] | 12.5 kcal/mol
CNCCC(Oc1ccccc1OC)c1ccccc1 (configuration not stated) [NISOXETINE] | 11.5 kcal/mol
CC(C)Cc1cnc2nc(N)nc(N)c2n1 | 12.3 kcal/mol
O=C(O)c1ccc(C(=O)O)c(C(=O)O)c1 | 5.2 kcal/mol
O=c1cccc2n1C[C@@H]1CNC[C@H]2C1 [CYTISINICLINE] | 12.1 kcal/mol
CCc1nc(N)nc(N)c1-c1ccc(Cl)cc1 [PYRIMETHAMINE] | 9.7 kcal/mol
CN1CCc2cccc3c2[C@H]1Cc1ccc(O)c(O)c1-3 [APOMORPHINE] | 11.9 kcal/mol
N=C(N)N/N=C/c1c(Cl)cccc1Cl [GUANABENZ] | 12.3 kcal/mol
C=C1CC[C@H](O)C/C1=C/C=C1\CCC[C@]2(C)[C@@H]([C@H](C)CCC(O)C(C)(C)O)CC[C@@H]12 (some centres not stated) | 13.2 kcal/mol
O=C(O)CCCC[C@@H]1SC[C@@H]2NC(=O)N[C@@H]21 [BIOTIN] | 20.5 kcal/mol
C[C@]12CCC(=O)C[C@@H]1CC[C@@H]1[C@@H]2CC[C@]2(C)[C@@H](O)CC[C@@H]12 (stereo in doubt; 155) [STANOLONE] | 13.1 kcal/mol
OC1(c2ccc(Cl)c(C(F)(F)F)c2)CCN(CCCC(c2ccc(F)cc2)c2ccc(F)cc2)CC1 [PENFLURIDOL] | 9.9 kcal/mol
CN(C)CCC=C1c2ccccc2COc2ccccc21 [DOXEPIN] | 13.1 kcal/mol
Cc1cccc(C)c1N=C1NCCCS1 [XYLAZINE] | 11.3 kcal/mol
CN1CCC(=C2c3ccccc3Oc3ccc(Cl)cc32)CC1 [CLOPIPAZAN] | 12.8 kcal/mol
O=C(NO)C(O)P(=O)(O)O (configuration not stated) | 10.9 kcal/mol
CCC1(CC=C2CCCCC2)C(=O)NC(=O)NC1=O | 8.4 kcal/mol
O=C1CCN([C@H]2C[C@H](O)[C@@H](COP(=O)(O)O)O2)C(=O)N1 | 10.9 kcal/mol
Cc1c(O)oc2ccccc2c1=O | 7 kcal/mol
